Assay results from the supplement of paper PMC4380931.

What was measured:
Test in all cases: relative viability (cell count relative to DMSO-treated control) (fraction of DMSO control); higher = more viable cells / less drug effect
LOXIMVI = details: 24 h
Protocol: (§1)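 BRAF V600E/D melanoma cell lines were seeded in 96-well plates, treated in 4 replicates with seven doses (3.16 nM to 3.16 uM) of RAF/MEK inhibitors for 24, 48 or 72 h, and stained with Hoechst 33342 (nuclei) and DEVD-NucView488 caspase-3 substrate. Plates were imaged on an Operetta. Relative viability is the cell count normalised to a DMSO-treated control; apoptosis fraction is the fraction of NucView488-positive nuclei.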

WM1552C = test system: WM1552C
Protocol: as §1

MZ7MEL = test system: MZ7MEL
Protocol: as §1

RVH421 = test system: RVH421
Protocol: as §1

MMACSF = test system: MMACSF
Protocol: as §1

WM115 = test system: WM115
Protocol: as §1

C32 = test system: C32
Protocol: as §1

CN(C)CCOc1ccc(-c2nc(-c3ccncc3)c(-c3ccc4c(c3)CC/C4=N\O)[nH]2)cc1
LOXIMVI
Details | relative viability
0.00316 µM | 0.935
0.01 µM | 1.01
0.0316 µM | 1.02
0.1 µM | 0.997
0.316 µM | 1.02
1 µM | 0.987
3.16 µM | 0.903

relative viability
Details | 0.00316 µM | 0.01 µM | 0.0316 µM | 0.1 µM | 0.316 µM | 1 µM | 3.16 µM
C32, 24 h | 1.07 | 1.05 | 1.09 | 1.05 | 0.971 | 0.842 | 0.779
C32, 48 h | 1.2 | 1.04 | 1.03 | 1.06 | 0.858 | 0.551 | 0.4
C32, 72 h | 1.1 | 1.19 | 1.08 | 0.762 | 0.436 | 0.276 | 0.209
MMACSF, 24 h | 1.03 | 0.999 | 0.9993 | 1.03 | 0.964 | 0.977 | 1.02
MMACSF, 48 h | 0.955 | 1.01 | 0.925 | 0.787 | 0.791 | 0.727 | 0.684
MMACSF, 72 h | 0.953 | 0.952 | 0.779 | 0.6 | 0.529 | 0.423 | 0.341
MZ7MEL, 24 h | 1.1 | 1.18 | 1.1 | 1.09 | 1.18 | 1.13 | 0.887
MZ7MEL, 48 h | 1.07 | 0.968 | 0.991 | 0.874 | 0.67 | 0.608 | 0.545
MZ7MEL, 72 h | 1.23 | 1.14 | 0.834 | 0.614 | 0.537 | 0.414 | 0.387
RVH421, 24 h | 0.994 | 0.9379 | 1.04 | 1.034 | 1.01 | 1.02 | 0.929
RVH421, 48 h | 1.07 | 0.849 | 0.803 | 0.689 | 0.672 | 0.638 | 0.513
RVH421, 72 h | 0.983 | 0.995 | 0.872 | 0.702 | 0.641 | 0.575 | 0.542
WM115, 24 h | 1.06 | 1.33 | 1.36 | 1.4 | 1.35 | 1.15 | 1.28
WM115, 48 h | 1.31 | 1.47 | 1.54 | 1.44 | 1.42 | 0.972 | 0.683
WM115, 72 h | 1.03 | 1.02 | 0.889 | 0.773 | 0.683 | 0.584 | 0.573
WM1552C, 24 h | 0.999 | 1.036 | 0.986 | 1.08 | 1.03 | 1.088 | 1.05
WM1552C, 48 h | 1.01 | 1.01 | 0.994 | 0.994 | 0.954 | 0.87 | 0.82
WM1552C, 72 h | 1.03 | 1.16 | 1.15 | 1.03 | 0.899 | 0.699 | 0.616

Cc1ccc(NC(=O)c2cccc(C(C)(C)C#N)c2)cc1Nc1ccc2ncn(C)c(=O)c2c1 [AZ628]
LOXIMVI
Details | relative viability
0.00316 µM | 0.963
0.01 µM | 0.949
0.0316 µM | 0.956
0.1 µM | 0.942
0.316 µM | 0.86
1 µM | 0.862
3.16 µM | 0.822

relative viability
Details | 0.00316 µM | 0.01 µM | 0.0316 µM | 0.1 µM | 0.316 µM | 1 µM | 3.16 µM
C32, 24 h | 1.09 | 1.12 | 1.05 | 1.02 | 0.87 | 0.757 | 0.877
C32, 48 h | 1.17 | 1.14 | 1.01 | 0.793 | 0.428 | 0.109 | 0.0749
C32, 72 h | 0.992 | 1.1 | 0.947 | 0.45 | 0.163 | 0.059 | 0.0269
MMACSF, 24 h | 1.059 | 0.978 | 1 | 0.982 | 0.988 | 1 | 1.034
MMACSF, 48 h | 0.938 | 1.02 | 0.913 | 0.771 | 0.737 | 0.56 | 0.517
MMACSF, 72 h | 0.917 | 0.833 | 0.641 | 0.519 | 0.367 | 0.223 | 0.141
MZ7MEL, 24 h | 1.02 | 1.02 | 1.05 | 1.19 | 1.12 | 0.945 | 0.878
MZ7MEL, 48 h | 1.03 | 1.04 | 1 | 0.726 | 0.549 | 0.435 | 0.465
MZ7MEL, 72 h | 1.2 | 1.11 | 0.586 | 0.336 | 0.33 | 0.356 | 0.327
RVH421, 24 h | 0.929 | 0.9636 | 1.05 | 1.06 | 1.02 | 0.993 | 0.908
RVH421, 48 h | 1.06 | 0.944 | 0.81 | 0.666 | 0.696 | 0.65 | 0.544
RVH421, 72 h | 0.956 | 0.915 | 0.741 | 0.58 | 0.537 | 0.47 | 0.412
WM115, 24 h | 1.19 | 1.47 | 1.51 | 1.53 | 1.37 | 0.87 | 0.946
WM115, 48 h | 1.06 | 1.19 | 1.47 | 1.31 | 1.11 | 0.658 | 0.424
WM115, 72 h | 1.03 | 1.04 | 0.801 | 0.594 | 0.281 | 0.172 | 0.0874
WM1552C, 24 h | 0.959 | 0.982 | 0.99 | 1.01 | 0.974 | 0.996 | 0.928
WM1552C, 48 h | 1.01 | 1 | 0.964 | 0.772 | 0.665 | 0.647 | 0.644
WM1552C, 72 h | 1.03 | 1.11 | 0.948 | 0.736 | 0.555 | 0.484 | 0.442
